The target in experiment [1] is T1, Cytochrome P450 1A2 (Homo sapiens, UniProt P05177).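 Also: PubChem cytochrome P450 panel assay, CYP1A2 panel member.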
T1 sequence (P05177 whole entry): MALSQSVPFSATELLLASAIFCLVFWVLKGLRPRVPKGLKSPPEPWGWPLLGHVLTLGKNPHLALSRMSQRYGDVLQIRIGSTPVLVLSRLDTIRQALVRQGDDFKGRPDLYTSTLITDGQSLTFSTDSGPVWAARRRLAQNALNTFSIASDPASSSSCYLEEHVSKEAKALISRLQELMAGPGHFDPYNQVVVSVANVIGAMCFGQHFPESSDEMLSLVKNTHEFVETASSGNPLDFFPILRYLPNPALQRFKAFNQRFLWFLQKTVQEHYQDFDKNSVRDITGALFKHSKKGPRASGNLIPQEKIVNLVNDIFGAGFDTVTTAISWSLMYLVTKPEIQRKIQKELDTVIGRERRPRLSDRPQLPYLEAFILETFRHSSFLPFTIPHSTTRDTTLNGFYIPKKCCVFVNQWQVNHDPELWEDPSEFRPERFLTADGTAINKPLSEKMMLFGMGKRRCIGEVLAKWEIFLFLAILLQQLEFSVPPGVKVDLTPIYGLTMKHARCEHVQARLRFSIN

For experiment [2], the target named is Cytochrome P450 2C19 (Homo sapiens, UniProt P33261). Nature of the experiment: Cytochrome panel assay with activity outcomes. Panel member name: p450-cyp2c19 Compounds with AC50 equal or less than 10 uM are considered active. The experiment is classed as functional. The settings on record: read-out: AC50.
Chain of Cytochrome P450 2C19 (P33261 whole entry): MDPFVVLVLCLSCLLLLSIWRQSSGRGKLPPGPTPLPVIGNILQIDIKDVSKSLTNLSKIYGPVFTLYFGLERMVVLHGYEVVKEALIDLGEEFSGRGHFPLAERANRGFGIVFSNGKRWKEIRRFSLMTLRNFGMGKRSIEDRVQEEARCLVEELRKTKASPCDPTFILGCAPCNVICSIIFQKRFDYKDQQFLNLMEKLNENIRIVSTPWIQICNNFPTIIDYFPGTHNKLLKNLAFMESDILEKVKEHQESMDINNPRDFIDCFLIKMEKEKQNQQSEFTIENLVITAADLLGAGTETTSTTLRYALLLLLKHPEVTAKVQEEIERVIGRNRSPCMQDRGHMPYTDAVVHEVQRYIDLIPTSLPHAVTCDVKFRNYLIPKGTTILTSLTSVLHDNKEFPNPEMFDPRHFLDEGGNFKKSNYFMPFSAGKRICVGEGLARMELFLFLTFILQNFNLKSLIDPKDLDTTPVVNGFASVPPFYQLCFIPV
Experiment [3] concerns the target Cytochrome P450 2C9 (Homo sapiens, UniProt P11712).
Experiment [4] in a line: Luminescence Cell-Based Dose Confirmation HTS to Identify Activators of 5'UTR Stem-Loop Driven Alpha-Synuclein mRNA Translation in H4 Neuroglioblastoma Cells. [Related pubchem assays: 1829 (Project Summary), 1814 (Primary HTS)]. The experiment is classed as functional.
A short description of experiment [5]: Luminescence Cell-Based Dose Response HTS to Identify Activators of Luciferase Translation or Activity in H4 […] Cells. [Related pubchem assays: 1829 (Project Summary), 1814 (Primary HTS)]. In kind it is functional.
Experiment [6] concerns H4. Nature of the experiment: Luminescence Cell-Based Dose Response HTS to Identify Activators of 5'UTR Stem-Loop Driven Prion Protein mRNA Translation in H4 Neuroglioblastoma Cells. [Related pubchem assays: 1829 (Project Summary), 1814 (Primary HTS)]. The settings on record: Homo sapiens. The experiment is classed as functional.
In experiment [7] the target is Cytochrome P450 2D6 (Homo sapiens, UniProt P10635).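 Also: CYP2D6 member of a cytochrome P450 panel assay.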
Chain of Cytochrome P450 2D6 (P10635 whole entry): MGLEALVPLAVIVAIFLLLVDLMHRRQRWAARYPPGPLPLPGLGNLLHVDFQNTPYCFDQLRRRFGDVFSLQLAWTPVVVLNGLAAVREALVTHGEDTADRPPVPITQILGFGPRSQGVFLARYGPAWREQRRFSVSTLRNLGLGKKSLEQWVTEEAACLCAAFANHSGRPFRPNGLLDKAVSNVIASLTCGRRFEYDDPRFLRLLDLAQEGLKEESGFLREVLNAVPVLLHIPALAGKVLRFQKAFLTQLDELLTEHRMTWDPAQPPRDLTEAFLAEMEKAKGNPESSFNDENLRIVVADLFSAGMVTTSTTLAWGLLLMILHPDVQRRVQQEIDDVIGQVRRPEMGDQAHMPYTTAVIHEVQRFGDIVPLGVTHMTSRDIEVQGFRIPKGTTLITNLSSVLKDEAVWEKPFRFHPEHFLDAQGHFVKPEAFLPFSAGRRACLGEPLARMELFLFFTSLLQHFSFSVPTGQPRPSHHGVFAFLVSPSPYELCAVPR
Experiment [8] in a line: HEp-2 cell cytotoxicity, dose response, cytotoxicity control for RSV inhibitor project, HTS (AID 2410). The experiment is classed as functional. The settings on record: human respiratory syncytial virus.
For experiment [9], the target named is T2, Corticotropin-releasing factor receptor 2/Corticotropin-releasing factor-binding protein (Homo sapiens, UniProt P24387+Q13324).
T2 sequence (Q13324 whole entry): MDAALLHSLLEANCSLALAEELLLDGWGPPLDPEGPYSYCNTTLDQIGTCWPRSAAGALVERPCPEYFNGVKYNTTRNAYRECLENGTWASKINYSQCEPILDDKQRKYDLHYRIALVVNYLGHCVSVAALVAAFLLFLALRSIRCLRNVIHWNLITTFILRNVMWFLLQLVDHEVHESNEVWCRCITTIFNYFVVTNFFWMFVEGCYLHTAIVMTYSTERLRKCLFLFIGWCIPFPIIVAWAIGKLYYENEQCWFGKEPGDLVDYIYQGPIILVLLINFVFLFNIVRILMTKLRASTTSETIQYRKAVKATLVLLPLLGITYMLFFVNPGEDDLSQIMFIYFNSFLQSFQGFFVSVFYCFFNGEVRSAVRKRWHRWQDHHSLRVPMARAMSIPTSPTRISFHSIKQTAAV
T2 sequence (P24387 whole entry): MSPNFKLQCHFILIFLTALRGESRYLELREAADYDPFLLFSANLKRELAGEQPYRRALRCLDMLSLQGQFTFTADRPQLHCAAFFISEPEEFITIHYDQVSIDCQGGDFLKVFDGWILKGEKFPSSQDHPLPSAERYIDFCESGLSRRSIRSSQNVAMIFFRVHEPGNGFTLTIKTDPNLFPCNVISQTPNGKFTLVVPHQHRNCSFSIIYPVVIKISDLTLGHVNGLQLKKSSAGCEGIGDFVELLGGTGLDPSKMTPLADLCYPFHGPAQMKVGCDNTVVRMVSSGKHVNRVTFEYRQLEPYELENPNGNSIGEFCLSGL
Nature of the experiment: Dose Response confirmation of uHTS hits for small molecule antagonists of the CRF-binding protein and CRF-R2 receptor complex. In kind it is functional. The settings on record: read-out: IC50_Mean.

Experiment [10] concerns the target T2, Corticotropin-releasing factor receptor 2/Corticotropin-releasing factor-binding protein. Nature of the experiment: activators of CRF receptor 2 with binding protein – uHTS hits, confirmation (AID 602473). In kind it is functional. Conditions: read-out: EC50_Mean.
Experiment [11] addresses Cytochrome P450 3A4 (Homo sapiens, UniProt P08684).

Structures are written as SMILES. The source made the active and inactive calls. Bounds are passed on as bounds.

Here are results for 22 compounds from ChEMBL document CHEMBL1201862, “PubChem BioAssay data set” (2004).

Chain of Cytochrome P450 2C9 (P11712 whole entry): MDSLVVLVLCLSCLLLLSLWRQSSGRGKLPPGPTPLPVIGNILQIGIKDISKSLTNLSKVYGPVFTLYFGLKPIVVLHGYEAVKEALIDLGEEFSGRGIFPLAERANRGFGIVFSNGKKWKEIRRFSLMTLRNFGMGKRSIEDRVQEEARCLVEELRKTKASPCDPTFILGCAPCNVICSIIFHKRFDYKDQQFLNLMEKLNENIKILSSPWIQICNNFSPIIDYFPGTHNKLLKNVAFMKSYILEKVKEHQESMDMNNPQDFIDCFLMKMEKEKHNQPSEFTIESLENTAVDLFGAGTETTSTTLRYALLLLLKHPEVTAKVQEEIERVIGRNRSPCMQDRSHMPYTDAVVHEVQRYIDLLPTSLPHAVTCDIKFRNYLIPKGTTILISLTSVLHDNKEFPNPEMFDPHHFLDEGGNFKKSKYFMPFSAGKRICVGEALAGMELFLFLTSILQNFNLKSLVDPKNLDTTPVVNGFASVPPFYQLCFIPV
Chain of Cytochrome P450 3A4 (P08684 whole entry): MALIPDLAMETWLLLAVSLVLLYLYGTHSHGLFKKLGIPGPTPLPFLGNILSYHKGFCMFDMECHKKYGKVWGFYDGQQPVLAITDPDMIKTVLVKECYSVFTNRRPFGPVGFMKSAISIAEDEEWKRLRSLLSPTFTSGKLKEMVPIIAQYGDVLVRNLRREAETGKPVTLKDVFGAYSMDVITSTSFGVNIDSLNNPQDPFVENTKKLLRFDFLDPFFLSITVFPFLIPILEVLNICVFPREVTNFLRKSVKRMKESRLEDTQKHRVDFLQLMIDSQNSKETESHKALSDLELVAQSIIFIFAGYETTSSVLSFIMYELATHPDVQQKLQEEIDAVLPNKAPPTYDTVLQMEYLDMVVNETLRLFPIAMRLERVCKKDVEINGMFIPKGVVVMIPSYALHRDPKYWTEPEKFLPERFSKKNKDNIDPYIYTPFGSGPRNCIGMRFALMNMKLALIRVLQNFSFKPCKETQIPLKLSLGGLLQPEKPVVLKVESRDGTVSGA

`CCCCCCC[n+]1ccc(-c2cc[n+](CCCCCCC)cc2)cc1`: the AC50 in [1] was 31.6 µM (inconclusive); in [2], 10 µM (inconclusive); in [3], 39.8 µM (inconclusive).

For the compound `O=C(C1CCCN1S(=O)(=O)c1cccc2nsnc12)N1CCN(c2ccccc2)CC1` (stereo not given), the EC50 in experiment [4], in [5] and in experiment [6] was > 120 µM (not active) each time.

On to `O=Nc1c(O)n(Cc2ccc(Cl)cc2)c2ccccc12`, for which, in experiment [7], the AC50 is 25.1 µM (inconclusive). The CC50 in experiment [8] is 38.5 µM (active).

For the compound `COc1ccc(S(=O)(=O)N2CCOC2CNC(=O)C(=O)NCCc2ccccc2)cc1C` (stereo not given), the IC50 in experiment [9] is > 47.1 µM (inactive). For the same compound, in experiment [10], the EC50 was > 53 µM (inactive).

Regarding `O=C1c2ccccc2NC(c2ccccc2Cl)N1N=C1CCCCCC1` (stereo not given), the EC50 in experiment [4] was 18.9 µM (active); in [5], 11.9 µM (active); in experiment [6], 0.493 µM (active).

Turning to `CN1C(=O)C(O)(C2COC(C)(C)CC2=O)c2cc(Br)ccc21` (stereo not given), the IC50 in experiment [9] was > 47.1 µM (inactive). In addition, the EC50 in experiment [10] was > 53 µM (inactive).

In the case of `CCOC(=O)C1CCN(c2ncnc3c2nnn3Cc2ccccc2Cl)CC1`, in experiment [9], the IC50 is > 47.1 µM (inactive). Moreover, the EC50 in experiment [10] was > 53 µM (inactive).

Regarding `CCOC(=O)c1sc2nc(C)n(CC(=O)NCC3CCCO3)c(=O)c2c1C` (stereo not given), the IC50 in experiment [9] was > 47.1 µM (inactive). Moreover, the EC50 in [10] is > 53 µM (inactive).

With `O=S(=O)(Cc1ccccc1)N1CCC(c2nc(O)c3nnn(Cc4cccc(Cl)c4)c3n2)CC1`, the CC50 in [8] is 48.9 µM (active).

For the compound `CCOc1cc(/C=C2\SC(=S)N(Nc3ccccc3)C2=O)ccc1O`, the EC50 was 8.87 µM (active) in experiment [4], 9.91 µM (active) in experiment [5] and 22.6 µM (active) in [6].

Take `COc1ccc(-n2c(Cc3cccc([N+](=O)[O-])c3)nc3ccccc3c2=O)cc1`: the CC50 in experiment [8] was > 50 µM (active).

For the compound `CCOC(=O)N1CCN(Cc2nc3c(c(=O)n(C)c(=O)n3C)n2CCC(C)C)CC1`, the IC50 in experiment [9] was > 47.1 µM (inactive). Also, in [10], the EC50 was > 53 µM (inactive).

On to `CCOC(=O)c1cc(C#N)c(Oc2ccccc2OC)nc1-c1ccccc1`, for which, in experiment [11], the AC50 was 11.2 µM (inconclusive). The IC50 in experiment [9] is > 47.1 µM (inactive). Moreover, in experiment [10], the EC50 was > 53 µM (inactive).

Consider `COc1ccc(C(CC(=O)Nc2ccc(F)cc2)c2ccccc2)cc1` (stereo not given), for which the IC50 in experiment [9] is 24.3 µM (active). In addition, in experiment [10], the EC50 was > 53 µM (inactive).

Consider `Oc1ccc(C23CCCC2C2(CCCC2)c2ccc(O)cc2O3)c(O)c1` (stereo not given), for which the CC50 in experiment [8] was 10.6 µM (active).

Turning to `C[C@@]12C(=O)N(c3cccc(F)c3)C(=O)N1[C@H](c1ccc(Cl)cc1)[C@@H]1C(=O)N(C3CCCCC3)C(=O)[C@@H]12`, in experiment [8], the CC50 is 38.5 µM (active).

Consider `CCC(CC)C(=O)c1c[nH]c(C(=O)NCCc2ccccn2)c1`, for which the half-maximal activity concentration (AC50) is 14.1 µM (inconclusive) in [1], 20 µM (inconclusive) in experiment [11], 20 µM (inconclusive) in experiment [2] and 39.8 µM (inconclusive) in [3].

In the case of `COc1cc(C=O)ccc1OCCOCCOc1ccc(Cl)cc1Cl`, in experiment [9], the IC50 is > 47.1 µM (inactive). For the same compound, the EC50 in [10] is > 53 µM (inactive).

With `Cc1nc2ccc(NC(=O)c3cccc(S(=O)(=O)N4CCOCC4)c3)cc2s1`, the IC50 in experiment [9] was > 47.1 µM (inactive). Moreover, the EC50 in experiment [10] was > 53 µM (inactive).

Turning to `COc1ccc(OC)c2c1s/c(=N\C(=O)C1COc3ccccc3O1)n2C` (stereo not given), in experiment [9], the IC50 is > 47.1 µM (inactive). The EC50 in [10] was > 53 µM (inactive).

For `C/C(=N/NS(=O)(=O)c1ccc(Br)cc1)c1ccc(NC(=O)c2ccc(C)o2)cc1`, in experiment [8], the CC50 was 38 µM (active).

For `Cc1[nH]c2ccccc2c1/C=N/NC(=O)c1cccc(S(=O)(=O)Nc2cccc(C(F)(F)F)c2)c1`, the CC50 in experiment [8] was 12.2 µM (active).

Usually AC50 stands for the midpoint of the concentration-response curve, whichever way the signal moves. In general, CC50 refers to the concentration giving 50% cytotoxicity.
